In patent US6737383B1, “Herbicidal oxadiazolidines” (priority 1999, dated 2004):

Experiments:
blackgrass = experiment: Test B pre/postemergence blackgrass; format: in vivo, Alopecurus myosuroides
In short: (§1)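 Herbicidal effect was estimated by eye on a ten-point control scale after plants spent twelve to sixteen days in a greenhouse following soil or foliar treatment. Foliar sprays targeted plants at one to four leaves; all doses were formulated in a non-phytotoxic solvent with surfactant.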

velvetleaf = experiment: Test B pre/postemergence velvetleaf; format: in vivo, Abutilon theophrasti
In short: as §1

giant foxtail = experiment: Test B pre/postemergence giant foxtail; format: in vivo, Setaria faberii
In short: as §1

corn = experiment: Test B pre/postemergence corn; format: in vivo, Zea mays
In short: as §1

bedstraw = experiment: Test B pre/postemergence bedstraw; format: in vivo, Galium aparine
In short: as §1

pigweed = experiment: Test B pre/postemergence pigweed; format: in vivo, Amaranthus retroflexus
In short: as §1

wild oat = experiment: Test B pre/postemergence wild oat; format: in vivo, Avena fatua
In short: as §1

morningglory = experiment: Test B pre/postemergence morningglory; format: in vivo, Ipomoea hederacea
In short: as §1

crabgrass = experiment: Test B pre/postemergence crabgrass; format: in vivo, Digitaria sanguinalis
In short: as §1

purple nutsedge = experiment: Test B pre/postemergence purple nutsedge; format: in vivo, Cyperus rotundus
In short: as §1

soybean = experiment: Test B pre/postemergence soybean; format: in vivo, Glycine max
In short: as §1

wheat = experiment: Test B pre/postemergence wheat; format: in vivo, Triticum aestivum
In short: as §1

cocklebur = experiment: Test B pre/postemergence cocklebur; format: in vivo, Xanthium strumarium
In short: as §1

rape = experiment: Test B pre/postemergence rape; format: in vivo, Brassica napus
In short: as §1

surinam grass = experiment: Test B pre/postemergence surinam grass; format: in vivo, Brachiaria decumbens
In short: as §1

sugar beet = experiment: Test B pre/postemergence sugar beet; format: in vivo, Beta vulgaris
In short: as §1

[1] = Postemergence, Rate 62 g/ha, scale of 0 to 10, 0 is no effect, 10 is complete control
[2] = Postemergence, Rate 125 g/ha, scale 0 to 10, 0 is no effect, 10 is complete control
[3] = Postemergence, Rate 500 g/ha, scale 0 to 10, 0 is no effect, 10 is complete control
[4] = Preemergence, Rate 62 g/ha, scale 0 to 10 (0 no effect, 10 complete control)
[5] = Preemergence, Rate 125 g/ha, scale 0 to 10, 0 is no effect, 10 is complete control
[6] = Preemergence, Rate 500 g/ha, scale of 0 to 10 where 0 is no effect and 10 is complete control
[7] = Rate 250 g/ha, Postemergence, scale of 0 to 10 where 0 is no effect and 10 is complete control

CC(C)N(C(=O)n1oc(=O)n(C(C)C(=O)c2ccccc2)c1=O)c1ccc(Cl)cc1 (stereo not drawn) [Compound 541]
7: Giant foxtail plant response rating (giant foxtail; [4])
10: Giant foxtail plant response rating (giant foxtail; [5]) | Giant foxtail plant response rating (0 to 10 scale) (giant foxtail; Preemergence, Rate 250 g/ha) | Giant foxtail plant response rating (giant foxtail; [6]) | Crabgrass plant response rating (0 to 10 scale) (crabgrass; Preemergence, Rate 250 g/ha) | Crabgrass plant response rating (crabgrass; [6])
5: Plant response rating, Bedstraw (bedstraw; [3]) | Plant response rating, Bedstraw (bedstraw; [7]) | Wild oats plant response rating (0 to 10 scale) (wild oat; Preemergence, Rate 250 g/ha) | Wild oats plant response rating (wild oat; [6]) | Crabgrass plant response rating (crabgrass; [4]) | Crabgrass plant response rating (crabgrass; [5]) | Plant response rating, Cocklebur (cocklebur; [3]) | Plant response rating, Cocklebur (cocklebur; [7]) | B. signalgrass plant response rating (surinam grass; [6])
1: Morningglory plant response rating (morningglory; [2]) | Plant response rating, Morningglory (morningglory; [7]) | Plant response rating, Soybean (soybean; [7])
3: Bedstraw plant response rating (bedstraw; [6]) | Plant response rating, Redroot pigweed (pigweed; [3]) | Plant response rating, Morningglory (morningglory; [3]) | Plant response rating, Crabgrass (crabgrass; [3]) | Wheat plant response rating (0 to 10 scale) (wheat; Preemergence, Rate 250 g/ha) | Wheat plant response rating (wheat; [6]) | Plant response rating, Rape (rape; [3]) | Plant response rating, Rape (rape; [7])
4: Plant response rating, Sugarbeets (sugar beet; [3])
0: Blackgrass plant response rating (blackgrass; [1]) | Blackgrass plant response rating (blackgrass; [2]) | Plant response rating, Blackgrass (blackgrass; [3]) | Blackgrass plant response rating (blackgrass; [4]) | Blackgrass plant response rating (blackgrass; [5]) | Blackgrass plant response rating (0 to 10 scale) (blackgrass; Preemergence, Rate 250 g/ha) | Plant response rating, Blackgrass (blackgrass; [7]) | Velvetleaf plant response rating (velvetleaf; [1]) | Velvetleaf plant response rating (velvetleaf; [2]) | Plant response rating, Velvetleaf (velvetleaf; [3]) | Velvetleaf plant response rating (velvetleaf; [4]) | Velvetleaf plant response rating (velvetleaf; [5]) | Velvetleaf plant response rating (0 to 10 scale) (velvetleaf; Preemergence, Rate 250 g/ha) | Velvetleaf plant response rating (velvetleaf; [6]) | Plant response rating, Velvetleaf (velvetleaf; [7]) | Giant foxtail plant response rating (giant foxtail; [1]) | Giant foxtail plant response rating (giant foxtail; [2]) | Plant response rating, Giant foxtail (giant foxtail; [7]) | Corn plant response rating (corn; [1]) | Corn plant response rating (corn; [2]) | Plant response rating, Corn (corn; [3]) | Corn plant response rating (corn; [4]) | Corn plant response rating (corn; [5]) | Corn plant response rating (0 to 10 scale) (corn; Preemergence, Rate 250 g/ha) | Corn plant response rating (corn; [6]) | Plant response rating, Corn (corn; [7]) | Bedstraw plant response rating (bedstraw; [1]) | Bedstraw plant response rating (bedstraw; [4]) | Bedstraw plant response rating (bedstraw; [5]) | Bedstraw plant response rating (0 to 10 scale) (bedstraw; Preemergence, Rate 250 g/ha) | Redroot pigweed plant response rating (pigweed; [1]) | Redroot pigweed plant response rating (pigweed; [2]) | Redroot pigweed plant response rating (pigweed; [4]) | Redroot pigweed plant response rating (pigweed; [5]) | Redroot pigweed plant response rating (0 to 10 scale) (pigweed; Preemergence, Rate 250 g/ha) | Redroot pigweed plant response rating (pigweed; [6]) | Plant response rating, Redroot pigweed (pigweed; [7]) | Wild oats plant response rating (wild oat; [1]) | Wild oats plant response rating (wild oat; [2]) | Wild oats plant response rating (wild oat; [4]) | Wild oats plant response rating (wild oat; [5]) | Plant response rating, Wild oats (wild oat; [7]) | Morningglory plant response rating (morningglory; [1]) | Morningglory plant response rating (morningglory; [4]) | Morningglory plant response rating (morningglory; [5]) | Morningglory plant response rating (0 to 10 scale) (morningglory; Preemergence, Rate 250 g/ha) | Morningglory plant response rating (morningglory; [6]) | Crabgrass plant response rating (crabgrass; [1]) | Crabgrass plant response rating (crabgrass; [2]) | Plant response rating, Crabgrass (crabgrass; [7]) | Nutsedge plant response rating (purple nutsedge; [1]) | Nutsedge plant response rating (purple nutsedge; [2]) | Plant response rating, Nutsedge (purple nutsedge; [3]) | Nutsedge plant response rating (purple nutsedge; [5]) | Nutsedge plant response rating (0 to 10 scale) (purple nutsedge; Preemergence, Rate 250 g/ha) | Nutsedge plant response rating (purple nutsedge; [6]) | Plant response rating, Nutsedge (purple nutsedge; [7]) | Soybean plant response rating (soybean; [1]) | Soybean plant response rating (soybean; [2]) | Soybean plant response rating (soybean; [4]) | Soybean plant response rating (soybean; [5]) | Soybean plant response rating (0 to 10 scale) (soybean; Preemergence, Rate 250 g/ha) | Soybean plant response rating (soybean; [6]) | Wheat plant response rating (wheat; [1]) | Wheat plant response rating (wheat; [2]) | Plant response rating, Wheat (wheat; [3]) | Wheat plant response rating (wheat; [4]) | Wheat plant response rating (wheat; [5]) | Plant response rating, Wheat (wheat; [7]) | Cocklebur plant response rating (cocklebur; [1]) | Cocklebur plant response rating (cocklebur; [2]) | Cocklebur plant response rating (cocklebur; [5]) | Rape plant response rating (rape; [1]) | Rape plant response rating (rape; [2]) | Rape plant response rating (rape; [4]) | Rape plant response rating (rape; [5]) | Rape plant response rating (0 to 10 scale) (rape; Preemergence, Rate 250 g/ha) | Rape plant response rating (rape; [6]) | B. signalgrass plant response rating (surinam grass; [1]) | B. signalgrass plant response rating (surinam grass; [2]) | B. signalgrass plant response rating (surinam grass; [4]) | B. signalgrass plant response rating (surinam grass; [5]) | B. signalgrass plant response rating (0 to 10 scale, 0 is no effect, 10 is complete control) (surinam grass; Preemergence, Rate 250 g/ha) | Plant response rating, B. signalgrass (surinam grass; [7]) | Sugarbeets plant response rating (sugar beet; [1]) | Sugarbeets plant response rating (sugar beet; [2]) | Sugarbeets plant response rating (sugar beet; [4]) | Sugarbeets plant response rating (sugar beet; [5]) | Sugarbeets plant response rating (0 to 10 scale) (sugar beet; Preemergence, Rate 250 g/ha) | Plant response rating, Sugarbeets (sugar beet; [7])
2: Blackgrass plant response rating (blackgrass; [6]) | Plant response rating, Giant foxtail (giant foxtail; [3]) | Plant response rating, Wild oats (wild oat; [3]) | Plant response rating, Soybean (soybean; [3]) | Plant response rating, B. signalgrass (surinam grass; [3]) | Sugarbeets plant response rating (sugar beet; [6])
